From ChEMBL document CHEMBL5653631, “A Potent and Selective ULK1 Inhibitor Suppresses Autophagy and Sensitizes Cancer Cells to Nutrient Stress” (iScience, 2018)
Each block holds one compound with its values, some of them ahead of it.

Legend:
[1] = target: Serine/threonine-protein kinase VRK2 (Homo sapiens) (UniProt Q86Y07); experiment: Inhibition of human recombinant VRK2 at 500 nM related to control ULK1
[2] = target: T1, Serine/threonine-protein kinase Nek1 (Homo sapiens) (UniProt Q96PY6); experiment: Inhibition of human recombinant NEK1 at 500 nM related to control ULK1
T1 sequence (whole entry): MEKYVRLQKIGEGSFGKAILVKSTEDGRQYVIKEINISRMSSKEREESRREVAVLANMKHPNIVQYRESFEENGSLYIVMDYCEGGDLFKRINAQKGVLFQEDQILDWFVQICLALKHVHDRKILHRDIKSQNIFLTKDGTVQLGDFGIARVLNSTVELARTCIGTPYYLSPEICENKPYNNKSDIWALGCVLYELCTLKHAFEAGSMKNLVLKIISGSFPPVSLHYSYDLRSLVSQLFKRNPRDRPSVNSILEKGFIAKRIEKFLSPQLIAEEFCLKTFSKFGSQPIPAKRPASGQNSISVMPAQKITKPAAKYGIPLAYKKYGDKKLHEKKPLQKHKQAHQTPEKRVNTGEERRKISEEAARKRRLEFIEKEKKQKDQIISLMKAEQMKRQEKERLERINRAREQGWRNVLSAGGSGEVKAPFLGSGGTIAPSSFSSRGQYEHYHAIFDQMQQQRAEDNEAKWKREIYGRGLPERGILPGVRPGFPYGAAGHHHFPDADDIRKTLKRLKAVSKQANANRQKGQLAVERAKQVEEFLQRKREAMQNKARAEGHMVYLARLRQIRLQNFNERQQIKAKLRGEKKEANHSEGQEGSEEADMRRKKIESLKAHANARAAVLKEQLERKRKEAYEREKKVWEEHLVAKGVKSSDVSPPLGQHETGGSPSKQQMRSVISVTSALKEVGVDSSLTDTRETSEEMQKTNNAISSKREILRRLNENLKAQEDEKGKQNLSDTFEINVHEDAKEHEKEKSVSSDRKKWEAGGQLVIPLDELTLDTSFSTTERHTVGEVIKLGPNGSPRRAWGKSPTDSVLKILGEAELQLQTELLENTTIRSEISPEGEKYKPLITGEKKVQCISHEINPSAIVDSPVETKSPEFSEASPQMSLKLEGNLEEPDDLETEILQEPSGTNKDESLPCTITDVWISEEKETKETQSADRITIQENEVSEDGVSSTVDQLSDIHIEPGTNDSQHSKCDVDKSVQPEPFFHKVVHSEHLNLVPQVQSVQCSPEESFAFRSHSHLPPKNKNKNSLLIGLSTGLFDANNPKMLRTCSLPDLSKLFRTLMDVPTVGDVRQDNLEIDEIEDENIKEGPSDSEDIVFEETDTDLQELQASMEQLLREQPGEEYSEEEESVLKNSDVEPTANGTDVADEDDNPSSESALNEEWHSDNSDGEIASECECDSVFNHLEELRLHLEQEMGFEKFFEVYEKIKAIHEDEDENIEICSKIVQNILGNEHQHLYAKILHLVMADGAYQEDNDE

[3] = target: T2, Serine/threonine-protein kinase TBK1 (Homo sapiens) (UniProt Q9UHD2); experiment: Inhibition of human recombinant TBK1 at 15 nM related to control ULK1
T2 sequence (whole entry): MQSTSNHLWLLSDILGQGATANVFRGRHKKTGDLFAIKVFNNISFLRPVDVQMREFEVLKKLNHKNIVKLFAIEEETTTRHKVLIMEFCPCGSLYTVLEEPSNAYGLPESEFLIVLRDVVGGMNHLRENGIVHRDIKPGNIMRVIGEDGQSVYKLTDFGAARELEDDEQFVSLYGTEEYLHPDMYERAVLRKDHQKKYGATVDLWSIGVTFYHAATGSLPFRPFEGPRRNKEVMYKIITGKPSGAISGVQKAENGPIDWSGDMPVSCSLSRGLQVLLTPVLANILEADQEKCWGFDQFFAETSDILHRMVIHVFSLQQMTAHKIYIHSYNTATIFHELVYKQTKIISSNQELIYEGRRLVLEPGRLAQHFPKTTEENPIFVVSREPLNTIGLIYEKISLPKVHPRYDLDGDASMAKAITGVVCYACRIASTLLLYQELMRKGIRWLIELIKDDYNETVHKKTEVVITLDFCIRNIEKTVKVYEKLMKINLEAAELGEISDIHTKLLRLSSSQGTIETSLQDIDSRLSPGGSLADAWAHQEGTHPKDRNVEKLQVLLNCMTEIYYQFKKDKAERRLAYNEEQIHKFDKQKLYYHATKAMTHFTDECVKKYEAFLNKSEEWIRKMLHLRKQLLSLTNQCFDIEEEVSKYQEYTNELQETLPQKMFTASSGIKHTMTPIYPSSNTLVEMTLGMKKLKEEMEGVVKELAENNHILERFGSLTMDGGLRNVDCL

[4] = target: Serine/threonine-protein kinase WNK2 (Homo sapiens) (UniProt Q9Y3S1); experiment: Inhibition of human recombinant Wnk2 at 15 nM related to control ULK1
Chain of Serine/threonine-protein kinase WNK2 (Homo sapiens) (Q9Y3S1 whole entry): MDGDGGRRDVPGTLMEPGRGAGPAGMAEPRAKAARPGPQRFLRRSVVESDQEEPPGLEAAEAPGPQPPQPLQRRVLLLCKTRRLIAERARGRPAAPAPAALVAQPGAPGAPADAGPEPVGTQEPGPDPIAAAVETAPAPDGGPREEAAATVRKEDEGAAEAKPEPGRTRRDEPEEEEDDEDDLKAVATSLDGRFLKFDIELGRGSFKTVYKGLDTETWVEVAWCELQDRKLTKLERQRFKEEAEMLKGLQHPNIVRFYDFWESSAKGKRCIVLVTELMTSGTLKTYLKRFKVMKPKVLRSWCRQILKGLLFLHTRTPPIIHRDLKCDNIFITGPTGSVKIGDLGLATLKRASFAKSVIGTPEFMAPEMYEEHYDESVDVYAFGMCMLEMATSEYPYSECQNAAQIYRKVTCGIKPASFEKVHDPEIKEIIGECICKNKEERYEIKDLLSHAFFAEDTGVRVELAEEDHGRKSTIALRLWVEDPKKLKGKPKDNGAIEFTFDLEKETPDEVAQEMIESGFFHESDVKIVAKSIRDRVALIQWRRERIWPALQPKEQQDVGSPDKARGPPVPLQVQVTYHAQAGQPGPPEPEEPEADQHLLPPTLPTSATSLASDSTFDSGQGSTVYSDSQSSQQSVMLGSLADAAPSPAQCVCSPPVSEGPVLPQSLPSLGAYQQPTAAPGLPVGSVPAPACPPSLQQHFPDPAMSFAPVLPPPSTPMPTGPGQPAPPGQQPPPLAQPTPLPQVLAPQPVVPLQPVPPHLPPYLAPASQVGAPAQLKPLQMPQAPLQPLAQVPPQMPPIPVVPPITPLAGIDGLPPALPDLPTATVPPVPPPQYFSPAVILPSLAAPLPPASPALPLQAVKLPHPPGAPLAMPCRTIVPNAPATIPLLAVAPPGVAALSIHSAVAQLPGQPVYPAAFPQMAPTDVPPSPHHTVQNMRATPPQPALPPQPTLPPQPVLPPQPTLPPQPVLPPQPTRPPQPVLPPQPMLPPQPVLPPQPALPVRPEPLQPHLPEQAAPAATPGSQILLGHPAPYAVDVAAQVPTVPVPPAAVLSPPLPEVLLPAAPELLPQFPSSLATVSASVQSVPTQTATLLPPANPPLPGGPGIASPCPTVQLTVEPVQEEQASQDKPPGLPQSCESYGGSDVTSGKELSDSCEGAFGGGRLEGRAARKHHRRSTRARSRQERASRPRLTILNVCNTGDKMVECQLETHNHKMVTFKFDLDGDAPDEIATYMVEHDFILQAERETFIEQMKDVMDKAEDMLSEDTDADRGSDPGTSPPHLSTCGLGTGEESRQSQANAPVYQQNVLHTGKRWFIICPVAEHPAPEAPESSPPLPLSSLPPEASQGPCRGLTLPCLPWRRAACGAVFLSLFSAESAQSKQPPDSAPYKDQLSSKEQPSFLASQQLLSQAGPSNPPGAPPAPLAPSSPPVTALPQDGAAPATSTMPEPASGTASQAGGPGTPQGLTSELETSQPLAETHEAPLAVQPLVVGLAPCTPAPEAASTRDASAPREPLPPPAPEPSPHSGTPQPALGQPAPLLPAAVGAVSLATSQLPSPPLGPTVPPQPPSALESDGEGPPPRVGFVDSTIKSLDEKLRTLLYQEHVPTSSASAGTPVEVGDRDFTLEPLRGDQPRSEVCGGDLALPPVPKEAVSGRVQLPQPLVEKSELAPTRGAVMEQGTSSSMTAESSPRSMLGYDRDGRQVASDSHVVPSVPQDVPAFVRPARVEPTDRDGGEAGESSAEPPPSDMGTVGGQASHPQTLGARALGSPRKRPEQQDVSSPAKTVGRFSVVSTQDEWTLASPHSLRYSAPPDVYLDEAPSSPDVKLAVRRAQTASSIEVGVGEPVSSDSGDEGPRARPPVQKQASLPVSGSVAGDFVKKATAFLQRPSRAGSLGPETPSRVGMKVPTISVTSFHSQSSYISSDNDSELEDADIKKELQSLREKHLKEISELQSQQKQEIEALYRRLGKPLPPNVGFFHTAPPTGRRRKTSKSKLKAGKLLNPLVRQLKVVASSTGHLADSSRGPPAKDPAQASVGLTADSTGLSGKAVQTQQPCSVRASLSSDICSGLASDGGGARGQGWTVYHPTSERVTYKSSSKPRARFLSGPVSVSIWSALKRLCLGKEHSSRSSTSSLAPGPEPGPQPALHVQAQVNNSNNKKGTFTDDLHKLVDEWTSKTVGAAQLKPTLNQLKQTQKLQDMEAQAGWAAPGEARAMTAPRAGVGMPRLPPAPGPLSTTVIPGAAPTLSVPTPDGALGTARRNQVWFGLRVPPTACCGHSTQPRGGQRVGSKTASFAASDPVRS

[5] = target: TGF-beta receptor type-2 (Homo sapiens) (UniProt P37173); experiment: Inhibition of human recombinant TGFbR2 at 40 nM in presence of ATP by radiometric assay relative to control
Chain of TGF-beta receptor type-2 (Homo sapiens) (P37173 whole entry): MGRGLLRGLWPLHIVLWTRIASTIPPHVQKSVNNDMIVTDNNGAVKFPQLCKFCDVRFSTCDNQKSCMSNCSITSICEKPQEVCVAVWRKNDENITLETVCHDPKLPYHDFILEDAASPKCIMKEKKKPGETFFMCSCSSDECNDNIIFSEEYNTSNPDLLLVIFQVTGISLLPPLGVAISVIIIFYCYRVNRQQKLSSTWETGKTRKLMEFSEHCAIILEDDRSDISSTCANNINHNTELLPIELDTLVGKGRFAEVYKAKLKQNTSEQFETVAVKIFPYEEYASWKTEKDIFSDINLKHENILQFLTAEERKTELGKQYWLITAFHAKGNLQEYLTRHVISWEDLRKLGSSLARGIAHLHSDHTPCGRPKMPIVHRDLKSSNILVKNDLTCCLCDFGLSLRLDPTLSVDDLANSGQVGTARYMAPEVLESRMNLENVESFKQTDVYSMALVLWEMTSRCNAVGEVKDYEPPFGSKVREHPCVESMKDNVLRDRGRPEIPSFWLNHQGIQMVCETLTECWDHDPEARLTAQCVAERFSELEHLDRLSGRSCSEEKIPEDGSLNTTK

[6] = target: T3, Eukaryotic elongation factor 2 kinase (Homo sapiens) (UniProt O00418); experiment: Inhibition of human recombinant eEF2K at 40 nM related to control ULK1
T3 sequence (whole entry): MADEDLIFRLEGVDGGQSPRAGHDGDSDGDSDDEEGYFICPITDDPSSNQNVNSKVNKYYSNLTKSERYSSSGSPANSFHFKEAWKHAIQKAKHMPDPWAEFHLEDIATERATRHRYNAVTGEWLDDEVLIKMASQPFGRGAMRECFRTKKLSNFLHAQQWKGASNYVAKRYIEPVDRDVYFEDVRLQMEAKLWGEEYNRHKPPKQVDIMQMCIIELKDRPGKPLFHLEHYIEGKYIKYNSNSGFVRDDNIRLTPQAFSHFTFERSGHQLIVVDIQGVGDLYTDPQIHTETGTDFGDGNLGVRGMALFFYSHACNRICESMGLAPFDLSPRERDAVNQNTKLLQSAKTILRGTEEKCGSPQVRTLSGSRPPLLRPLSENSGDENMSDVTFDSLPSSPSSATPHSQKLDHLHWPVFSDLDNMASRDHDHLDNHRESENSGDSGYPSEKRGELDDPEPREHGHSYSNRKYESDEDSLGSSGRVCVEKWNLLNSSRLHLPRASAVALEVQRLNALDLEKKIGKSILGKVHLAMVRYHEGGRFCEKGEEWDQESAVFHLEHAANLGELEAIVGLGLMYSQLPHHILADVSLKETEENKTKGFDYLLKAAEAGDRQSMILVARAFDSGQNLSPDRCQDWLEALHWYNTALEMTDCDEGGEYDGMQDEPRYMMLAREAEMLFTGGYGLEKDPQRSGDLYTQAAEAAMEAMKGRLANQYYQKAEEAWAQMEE

Chain of Serine/threonine-protein kinase VRK2 (Homo sapiens) (Q86Y07 whole entry): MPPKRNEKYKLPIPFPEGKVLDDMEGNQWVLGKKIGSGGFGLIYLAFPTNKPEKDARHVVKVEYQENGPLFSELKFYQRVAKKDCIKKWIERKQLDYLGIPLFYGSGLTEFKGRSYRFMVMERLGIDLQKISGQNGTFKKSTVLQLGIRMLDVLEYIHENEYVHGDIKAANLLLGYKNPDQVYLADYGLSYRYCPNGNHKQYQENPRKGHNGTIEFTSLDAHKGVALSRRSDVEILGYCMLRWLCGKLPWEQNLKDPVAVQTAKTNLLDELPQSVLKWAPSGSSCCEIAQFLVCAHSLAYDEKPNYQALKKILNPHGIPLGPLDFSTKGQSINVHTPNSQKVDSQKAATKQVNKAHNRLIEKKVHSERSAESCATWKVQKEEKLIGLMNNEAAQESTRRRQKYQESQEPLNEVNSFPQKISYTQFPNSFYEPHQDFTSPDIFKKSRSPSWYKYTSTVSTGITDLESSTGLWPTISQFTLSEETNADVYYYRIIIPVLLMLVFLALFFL

- fold change (FC) [1]: 0.31
- fold change (FC) [2]: 0.11
Compound: CNC(=O)c1ccccc1Oc1nc(Nc2cc(OC)c(OC)c(OC)c2)ncc1Br

- fold change (FC) [3]: 0.9
- fold change (FC) [4]: 0.02
Compound: CC(C)[C@H](NC(=O)c1cc(-c2cnn3cc(-c4ccc(OCCN5CCCCC5)cc4)cnc23)cs1)C(F)(F)F

- inhibition [5]: 47%
- fold change (FC) [6]: 0.1
Compound: O=C(N[C@@H](C1CC1)C(F)(F)F)c1cc(-c2cnn3cc(-c4ccc(F)cc4)cnc23)cs1
